{"source": "paper PMC7028431", "about": "(Science (New York, N.Y.), 2019)", "biological_target": "GluER (Gluconobacter oxydans, UniProt Q5FTL6, T36A)", "experiment": "UV-visible spectrum of reduced enzyme", "assay_type": "binding", "settings": "dithionite reduction", "data": [{"compound": "Cc1cc2c(cc1C)N(C[C@H](O)[C@H](O)[C@H](O)COP(=O)(O)O)c1[nH]c(=O)[nH]c(=O)c1N2", "note": "[FMNhq]", "values": [{"measurement": "UV-visible spectrum of reduced enzyme", "result": "UV-visible spectrum of reduced GluER-T36A (FMNhq)"}]}]}
